Assay: xn = mol fraction of the nth substance listed
Conditions: 100 kPa

CC[N+]1(C)CCCC1.COP(=O)([O-])OC + CCO
viscosity [mPa·s]
Conditions | 293.15 K | 298.15 K | 303.15 K | 308.15 K | 313.15 K | 318.15 K | 323.15 K | 328.15 K | 333.15 K | 338.15 K
x1 = 0.0534 | – | 2.03 | 1.84 | 1.7 | 1.59 | 1.47 | – | 1.27 | 1.18 | –
x1 = 0.1054 | 3.4 | 3.06 | 2.75 | 2.51 | 2.31 | – | 1.96 | – | 1.71 | 1.6
x1 = 0.1535 | – | – | – | 3.68 | 3.33 | 3.06 | – | 2.61 | 2.42 | 2.23
x1 = 0.2015 | 6.75 | 6.07 | 5.35 | 4.78 | 4.33 | 3.97 | – | – | – | 2.8
x1 = 0.306 | 13.5 | – | 10.16 | 8.72 | 7.62 | 6.71 | 6.04 | 5.41 | 4.85 | 4.4
x1 = 0.4029 | 23.1 | 19.4 | 16.43 | 13.96 | 11.88 | 10.18 | 8.85 | 7.81 | 6.85 | 6
x1 = 0.5052 | 37.5 | 30.3 | 24.7 | – | 17.4 | 14.83 | 12.49 | 10.82 | 9.31 | 8
x1 = 0.6022 | 57 | 45.9 | 36.3 | 29.9 | 24.6 | 20.4 | 17.4 | – | 12.65 | 10.78
x1 = 0.6938 | 83.2 | 64.5 | 50.1 | – | 32.4 | 27 | – | 19 | 16.05 | 13.13
x1 = 0.8049 | 120.2 | 91.1 | 70 | 54.9 | 44 | 35.6 | – | – | 20.3 | 16.7
x1 = 0.9073 | 171 | 127.5 | 94.7 | 73.8 | 57.5 | 46.3 | 38 | 31 | 24.5 | –
x1 = 1 | 228 | 169 | – | – | 72.8 | 56.4 | 45.1 | 36.6 | 29.8 | –
